The values that follow come from patent US8685977B2, “Chemical compounds” (Pfizer Limited, priority 2010, dated 2014).

Some results are limits rather than exact numbers.

For this assay, the target named is T1, Nav1.7 (or SCN9A) channel (Homo sapiens, UniProt Q15858).
T1 construct: expressed in transfected cells
T1 sequence (Q15858 whole entry): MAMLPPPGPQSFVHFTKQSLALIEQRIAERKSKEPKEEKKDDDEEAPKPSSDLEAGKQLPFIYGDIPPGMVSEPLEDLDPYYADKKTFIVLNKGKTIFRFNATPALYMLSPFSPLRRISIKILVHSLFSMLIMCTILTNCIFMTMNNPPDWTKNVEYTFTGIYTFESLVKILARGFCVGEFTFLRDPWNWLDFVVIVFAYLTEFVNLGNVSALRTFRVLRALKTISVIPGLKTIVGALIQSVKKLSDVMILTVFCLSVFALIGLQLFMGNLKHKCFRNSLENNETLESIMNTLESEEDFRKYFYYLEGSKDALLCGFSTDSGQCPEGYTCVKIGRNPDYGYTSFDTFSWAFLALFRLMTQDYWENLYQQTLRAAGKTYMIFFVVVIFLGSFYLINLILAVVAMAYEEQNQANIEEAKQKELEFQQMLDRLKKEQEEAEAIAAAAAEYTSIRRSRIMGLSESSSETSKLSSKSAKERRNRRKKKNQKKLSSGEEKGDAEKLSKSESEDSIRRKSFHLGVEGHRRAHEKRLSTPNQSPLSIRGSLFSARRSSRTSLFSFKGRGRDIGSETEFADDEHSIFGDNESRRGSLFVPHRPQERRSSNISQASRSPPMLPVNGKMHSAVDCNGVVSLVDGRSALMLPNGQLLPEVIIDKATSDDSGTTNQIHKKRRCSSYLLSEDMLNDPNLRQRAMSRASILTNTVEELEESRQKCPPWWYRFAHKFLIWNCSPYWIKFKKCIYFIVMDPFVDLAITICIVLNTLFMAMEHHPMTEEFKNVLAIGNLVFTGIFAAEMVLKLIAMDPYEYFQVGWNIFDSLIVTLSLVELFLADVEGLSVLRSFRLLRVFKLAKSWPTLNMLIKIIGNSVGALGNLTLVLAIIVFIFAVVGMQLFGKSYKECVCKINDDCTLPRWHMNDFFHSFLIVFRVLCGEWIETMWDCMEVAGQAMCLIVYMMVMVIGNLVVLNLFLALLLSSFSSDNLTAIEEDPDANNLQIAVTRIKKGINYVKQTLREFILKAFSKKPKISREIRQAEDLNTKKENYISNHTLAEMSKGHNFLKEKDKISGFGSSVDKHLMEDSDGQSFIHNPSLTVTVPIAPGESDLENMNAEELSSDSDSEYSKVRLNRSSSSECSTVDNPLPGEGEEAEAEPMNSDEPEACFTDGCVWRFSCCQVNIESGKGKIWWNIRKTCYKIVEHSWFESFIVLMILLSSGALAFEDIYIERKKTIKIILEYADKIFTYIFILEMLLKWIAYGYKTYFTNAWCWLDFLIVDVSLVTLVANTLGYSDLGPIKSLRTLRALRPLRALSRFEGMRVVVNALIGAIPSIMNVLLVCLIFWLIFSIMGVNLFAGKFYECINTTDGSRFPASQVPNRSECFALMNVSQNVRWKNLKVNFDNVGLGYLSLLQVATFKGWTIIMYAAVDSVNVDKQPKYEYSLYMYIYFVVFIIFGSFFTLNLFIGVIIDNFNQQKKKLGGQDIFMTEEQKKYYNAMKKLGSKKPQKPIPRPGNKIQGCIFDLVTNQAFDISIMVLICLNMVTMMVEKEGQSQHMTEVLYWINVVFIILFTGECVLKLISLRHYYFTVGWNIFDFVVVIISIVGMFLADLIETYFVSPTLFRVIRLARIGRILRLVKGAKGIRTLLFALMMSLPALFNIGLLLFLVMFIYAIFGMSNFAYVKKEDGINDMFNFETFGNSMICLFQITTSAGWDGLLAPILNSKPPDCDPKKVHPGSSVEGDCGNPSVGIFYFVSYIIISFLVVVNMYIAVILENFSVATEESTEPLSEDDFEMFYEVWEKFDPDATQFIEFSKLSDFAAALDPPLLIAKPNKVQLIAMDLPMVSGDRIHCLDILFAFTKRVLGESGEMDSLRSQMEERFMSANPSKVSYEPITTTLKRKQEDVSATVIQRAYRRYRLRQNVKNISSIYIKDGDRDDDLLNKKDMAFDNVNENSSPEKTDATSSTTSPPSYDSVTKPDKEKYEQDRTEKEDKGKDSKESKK
As to the kind of experiment: Nav1.7 PatchXpress 7000 automated electrophysiology assay (HEK cells stably expressing hSCN9A). Format: cell-based. The following applies: voltage-clamped at V1/2 of inactivation, read-out: Nav1.7 EIC50. As for the experimental part:
The ability of the compounds of formula (I) to block the Nav1.7 (or SCN9A) channel was measured using the assays described below.
Human Embryonic Kidney (HEK) cells were transfected with an hSCN9A construct using lipofectamine reagent (Invitrogen), using standard techniques. Cells stably expressing the hSCN9A constructs were identified by their resistance to G-418 (400 μg/ml). Clones were screened for expression using the whole-cell voltage-clamp technique.
HEK cells stably transfected with hSCN9A were maintained in DMEM medium supplemented with 10% heat-inactivated fetal bovine serum and 400 μg/ml G-418 in an incubator at 37° C. with a humidified atmosphere of 10% CO2. For HTS, cells were harvested from flasks by trypsinization and replated in an appropriate multi-well plate (typically 96 or 384 wells/plate) such that confluence would be achieved within 24 hours of plating. For electrophysiological studies, cells were removed from the culture flask by brief trypsinization and re-plated at low density onto glass cover slips. Cells were typically used for electrophysiological experiments within 24 to 72 hours after plating.
Cover slips containing HEK cells expressing hSCN9A were placed in a bath on the stage of an inverted microscope and perfused (approximately 1 ml/minutes) with extracellular solution of the following composition: 138 mM NaCl, 2 mM CaCl2, 5.4 mM KCl, 1 mM MgCl2, 10 mM glucose, and 10 mM HEPES, pH 7.4, with NaOH. […] The osmolarity of the extracellular and intracellular solutions was 300 mOsm/kg and 295 mOsm/kg, respectively. All recordings were made at room temperature (22-24° C.) using AXOPATCH 200B amplifiers and PCLAMP software (Axon Instruments, Burlingame, Calif.).
HEK cells stably transfected with hSCN9A were viewed under Hoffman contrast optics and placed in front of an array of flow pipes emitting either control or compound-containing extracellular solutions. All compounds were dissolved in dimethyl sulfoxide to make 10 mM stock solutions, which were then diluted into extracellular solution to attain the final concentrations desired. […] The voltage-dependence of inactivation was determined by applying a series of depolarizing prepulses (8 sec long in 10 mV increments) from a negative holding potential. The voltage was then immediately stepped to 0 mV to assess the magnitude of the sodium current. Currents elicited at 0 mV were plotted as a function of prepulse potential to allow estimation of the voltage at which 50% of the channels were inactivated (midpoint of inactivation or V1/2). Compounds were tested for their ability to inhibit hSCN9A sodium channels by activating the channel with a 20 msec voltage step to 0 mV following an 8 second conditioning prepulse to the empirically determined V1/2. Compound effect (% inhibition) was determined by difference in current amplitude before and after application of test compounds. For ease of comparison, “estimated IC-50” (EIC50) values were calculated from single point electrophysiology data by the following equation, (tested concentration, uM)×(100-% inhibition/% inhibition). Inhibition values <20% and >80% were excluded from the calculation.
Electrophysiological assays were conducted with PatchXpress 7000 hardware and associated software (Molecular Devices Corp). All assay buffers and solutions were identical to those used in conventional whole-cell voltage clamp experiments described above. hSCN9A cells were grown as above to 50%-80% confluency and harvested by trypsinization. Trypsinized cells were washed and resuspended in extracellular buffer at a concentration of 1×10^6 cells/ml. The onboard liquid handling facility of the PatchXpress was used for dispensing cells and application of test compounds. Determination of the voltage midpoint of inactivation was as described for conventional whole-cell recordings. Cells were then voltage-clamped to the empirically determined V1/2 and current was activated by a 20 msec voltage step to 0 mV. […]
Turning to `CC(C)c1cccc(Oc2ccc(C(=O)NS(C)(=O)=O)cc2)c1` [Example 181, 4-(3-isopropylphenoxy)-N-(methylsulfonyl)benzamide], the IC50 is 1.6 µM.
On to `Cc1ccc(Oc2ccc(C(=O)NS(C)(=O)=O)cc2)cc1C` [Example 167, 4-(3,4-dimethylphenoxy)-N-(methylsulfonyl)benzamide], for which the IC50 stood at 12 µM.
As to `COc1ccccc1Sc1ccc(C(=O)NS(C)(=O)=O)cc1` [Example 324, 4-(2-methoxyphenylthio)-N-(methylsulfonyl)benzamide], the IC50 was over 3 µM.
For the molecule `CCS(=O)(=O)NC(=O)c1ccc(Oc2cccc(F)c2)cc1` [Example 306, N-(ethylsulfonyl)-4-(3-fluorophenoxy)benzamide], the IC50 was found to be 25 µM.
For `CCc1cc(F)ccc1Oc1ccc(C(=O)NS(C)(=O)=O)cc1F` [Example 20, 4-(2-ethyl-4-fluorophenoxy)-3-fluoro-N-(methylsulfonyl)benzamide] the value was 5.4 µM.
Turning to `CS(=O)(=O)NC(=O)c1cc(F)c(Oc2ccc(Cl)cc2Cl)cc1F` [Example 123, 4-(2,4-dichlorophenoxy)-2,5-difluoro-N-(methylsulfonyl)benzamide], the IC50 came to 2 µM.
As to `CS(=O)(=O)NC(=O)c1ccc(Oc2cccc(F)c2F)cc1` [Example 195, 4-(2,3-difluorophenoxy)-N-(methylsulfonyl)benzamide], the IC50 amounted to 22 µM.
For `CCc1cc(F)ccc1Oc1cc(F)c(C(=O)NS(C)(=O)=O)cc1Cl` [Example 18, 5-chloro-4-(2-ethyl-4-fluorophenoxy)-2-fluoro-N-(methylsulfonyl)benzamide] the value was 0.37 µM; for `CS(=O)(=O)NC(=O)c1cc(F)c(Oc2ccccc2C(F)(F)F)cc1F` [Example 113, 2,5-difluoro-N-(methylsulfonyl)-4-[2-(trifluoromethyl)phenoxy]benzamide], over 3 µM; for `CS(=O)(=O)NC(=O)c1cc(Cl)c(Oc2ccc(C(F)(F)F)c(Cl)c2)cc1F` [Example 9, 5-chloro-4-(3-chloro-4-(trifluoromethyl)phenoxy)-2-fluoro-N-(methylsulfonyl)benzamide], 0.047 µM.
`Cc1ccc(Oc2ccc(C(=O)NS(C)(=O)=O)cc2)c(Cl)c1` [Example 203, 4-(2-chloro-4-methylphenoxy)-N-(methylsulfonyl)benzamide]: the IC50 is 25 µM.
Turning to `CS(=O)(=O)NC(=O)c1ccc(Oc2ccc(Cl)cc2)c(F)c1` [Example 229, 4-(4-chlorophenoxy)-3-fluoro-N-(methylsulfonyl)benzamide], the IC50 was 1.2 µM.
As for `CS(=O)(=O)NC(=O)c1cc(F)c(Oc2cccc(Cl)c2F)cc1F` [Example 149, 4-(3-chloro-2-fluorophenoxy)-2,5-difluoro-N-(methylsulfonyl)benzamide], the IC50 was over 1 µM.
Take `CCOc1ccc(Oc2ccc(C(=O)NS(C)(=O)=O)cc2C#N)cc1` [Example 265, 3-cyano-4-(4-ethoxyphenoxy)-N-(methylsulfonyl)benzamide]: the IC50 worked out at 4.8 µM.
Take `Cc1ccc(F)c(Oc2ccc(C(=O)NS(C)(=O)=O)cc2)c1` [Example 205, 4-(2-fluoro-5-methylphenoxy)-N-(methylsulfonyl)benzamide]: the IC50 was determined as 15 µM.
As for `CCS(=O)(=O)NC(=O)c1ccc(Oc2ccc(C)cc2)cc1` [Example 308, N-(ethylsulfonyl)-4-(4-methylphenoxy)benzamide], the IC50 is over 10 µM.
Regarding `CS(=O)(=O)NC(=O)c1ccc(Oc2ccc(OCc3ccccc3)cc2)cc1` [Example 178, 4-[4-(benzyloxy)phenoxy]-N-(methylsulfonyl)benzamide], the IC50 amounted to 1.3 µM.
For `Cc1cc(C(=O)NS(C)(=O)=O)ccc1Oc1ccc(Cl)cc1` [Example 240, 4-(4-chlorophenoxy)-3-methyl-N-(methylsulfonyl)benzamide], the IC50 was found to be 0.63 µM.
With `COc1cc(Cl)ccc1Oc1ccc(C(=O)NS(C)(=O)=O)cc1C#N` [Example 63, 4-(4-chloro-2-methoxyphenoxy)-3-cyano-N-(methylsulfonyl)benzamide], the IC50 is over 3 µM.
As to `COc1ccc(Oc2ccc(C(=O)NS(C)(=O)=O)cc2)c(Cl)c1` [Example 183, 4-(2-chloro-4-methoxyphenoxy)-N-(methylsulfonyl)benzamide], the IC50 was over 10 µM.
As for `COc1cc(Cl)ccc1Oc1ccc(C(=O)NS(C)(=O)=O)cc1` [Example 175, 4-(4-chloro-2-methoxyphenoxy)-N-(methylsulfonyl)benzamide], the IC50 was over 10 µM.
As for `CCS(=O)(=O)NC(=O)c1ccc(Oc2ccccc2)cc1` [Example 307, N-(ethylsulfonyl)-4-phenoxybenzamide], the IC50 stood at 9.7 µM.
For `COc1cc(F)ccc1Oc1cc(F)c(C(=O)NS(C)(=O)=O)cc1F` [Example 69, 2,5-difluoro-4-(4-fluoro-2-methoxyphenoxy)-N-(methylsulfonyl)benzamide], the IC50 came to 6.2 µM.
Take `Cc1ccc(Cl)cc1Oc1ccc(C(=O)NS(C)(=O)=O)cc1` [Example 177, 4-(5-chloro-2-methylphenoxy)-N-(methylsulfonyl)benzamide]: the IC50 is 16 µM.
Regarding `CS(=O)(=O)NC(=O)c1ccc(Oc2ccccc2F)c(Cl)c1` [Example 282, 3-chloro-4-(2-fluorophenoxy)-N-(methylsulfonyl)benzamide], the IC50 came to 1.2 µM.
Consider `CC(C)c1ccc(Oc2ccc(C(=O)NS(C)(=O)=O)cc2)cc1` [Example 173, 4-(4-isopropylphenoxy)-N-(methylsulfonyl)benzamide], for which the IC50 was 1.2 µM.
Take `COc1cc(Oc2ccc(Cl)cc2OC(F)(F)F)ccc1C(=O)NS(C)(=O)=O` [Example 39, 4-[4-chloro-2-(trifluoromethoxy)phenoxy]-2-methoxy-N-(methylsulfonyl)benzamide]: the IC50 is 9.3 µM.
`Cc1cccc(C)c1Oc1ccc(C(=O)NS(C)(=O)=O)cc1` [Example 193, 4-(2,6-dimethylphenoxy)-N-(methylsulfonyl)benzamide]: the IC50 was over 10 µM.
As for `CCS(=O)(=O)NC(=O)c1ccc(Oc2ccc(F)cc2)cc1` [Example 305, N-(ethylsulfonyl)-4-(4-fluorophenoxy)benzamide], the IC50 came out at 6.4 µM.
To `CCc1cc(C(=O)NS(C)(=O)=O)ccc1Oc1ccc(Cl)c(Cl)c1` [Example 4, 4-(3,4-Dichlorophenoxy)-3-ethyl-N-(methylsulfonyl)benzamide] belongs 0.25 µM; to `CS(=O)(=O)NC(=O)c1cc(F)c(Oc2c(F)cccc2Cl)cc1F` [Example 91, 4-(2-chloro-6-fluorophenoxy)-2,5-difluoro-N-(methylsulfonyl)benzamide], over 3 µM.
As to `CCc1cc(F)ccc1Oc1ccc(C(=O)NS(C)(=O)=O)cc1` [Example 35, 4-(2-ethyl-4-fluorophenoxy)-N-(methylsulfonyl)benzamide], the IC50 amounted to 11 µM.
Consider `COc1cc(Cl)ccc1Oc1ccc(C(=O)NS(C)(=O)=O)cc1F` [Example 65, 4-(4-chloro-2-methoxyphenoxy)-3-fluoro-N-(methylsulfonyl)benzamide], for which the IC50 was over 1 µM.
Turning to `CS(=O)(=O)NC(=O)c1ccc(Nc2cccc(C(F)(F)F)c2)cc1` [Example 321, N-(methylsulfonyl)-4-(3-(trifluoromethyl)phenylamino)benzamide], the IC50 came to 0.32 µM.
For the molecule `CS(=O)(=O)NC(=O)c1c(F)cc(Oc2ccc(Cl)c(C(F)(F)F)c2)c(F)c1F` [Example 32, 4-(4-chloro-3-(trifluoromethyl)phenoxy)-2,3,6-trifluoro-N-(methylsulfonyl)benzamide], the IC50 is over 1 µM.
On to `CS(=O)(=O)NC(=O)c1ccc(Oc2ccc(C#N)cc2)c(Cl)c1` [Example 270, 3-chloro-4-(4-cyanophenoxy)-N-(methylsulfonyl)benzamide], for which the IC50 was 3.7 µM.
